Test results published in patent publication US20110182973A1, “POLYMERASE INHIBITORS AND THE USE THEREOF FOR THE TREATMENT OF TUMORS” (FREIE UNIVERSITAET BERLIN, priority 2007, published 2011).
“Also recorded” adds a separate entry of the source.

Tests used:
[1] = MTT test (viability) on primary keratinocytes (NHK); format: cell-based; details: human, primary keratinocytes (NHK); MTT test, NHK, 10^−4 M; read-out: Max. inhibition (%) (maximum decrease in viability)
[2] = tested on: primary keratinocytes; assay: as above; format: cell-based; details: for inhibition at 100 µM / IC50: Keratinocyte; for inhibition at 100 µM: read-out: max. inhibition; for IC50: 48 h stimulation, read-out: −lg IC50 [M] ± SEM (converted)
[3] = tested on: SCC-25 cells; assay: MTT test (viability) on SCC-25 tumor cells; format: cell-based; details: for inhibition at 100 µM / IC50 / cytotoxicity at 100 µM: Homo sapiens; for inhibition at 100 µM: read-out: max. inhibition; for IC50: read-out: −lg IC50 [M] ± SEM (converted); for cytotoxicity at 100 µM: read-out: Max. inhibition (%) (maximum decrease in viability)
[4] = MTT test (viability) on HaCaT keratinocyte cell line; format: cell-based; details: human, 10^−4 M, read-out: Max. inhibition (%) (maximum decrease in viability)
[5] = logP values; format: physicochemical
[6] = MTT test (viability) on dermal fibroblasts; format: cell-based; details: Fibrob., 10^−4 M, read-out: Max. inhibition (%) (maximum decrease in viability)
[7] = MTT test (viability) on colon carcinoma line HT-29; format: cell-based; details: Hat 29, 10^−4 M
[8] = tested on: MCF-7; assay: MTT test (viability) on breast cancer cell line MCF-7; format: cell-based; details: Homo sapiens, MCF7, MCF-7, 10^−4 M, read-out: Max. inhibition (%) (maximum decrease in viability)
[9] = MTT test 48 h, primary keratinocytes, inhibitionmax = 100 − E, E = activity at 10^−4 M in %
[10] = MTT test, primary keratinocytes
[11] = MTT test 48 h, SCC-25 cells, inhibitionmax = 100 − E, E = activity at 10^−4 M in %
[12] = MTT test, 48 h stimulation, SCC-25 cells

Row | Compound | cytotoxicity [1] | inhibition at 100 µM [2, 9] | IC50 [2, 10] | inhibition at 100 µM [3, 11] | IC50 [3, 12] | cytotoxicity at 100 µM ([3]; MTT test, SCC-25, 10^−4 M) | cytotoxicity [4] | logP [5] | other results
1 | Cc1cn([C@H]2CC(=NO)[C@@H](CO)O2)c(=O)[nH]c1=O [HM-1 oxime, 3′-deoxy-3′-hydroxyliminothymidine] | 3% | 7% | 3.09e-08 M | 36% | 3.72e-08 M | 30% | 20% | – | –
2 | C[C@]12C=CC(=O)C=C1CC[C@@H]1[C@@H]2[C@@H](O)C[C@@]2(C)[C@H]1CC[C@]2(O)C(=O)CO [Prednisolone] | – | – | – | – | – | – | – | 1.69 | –
3 | O=c1[nH]cc(F)c(=O)[nH]1 [Substance 5-FU, 5-fluorouracil] | 41% | 44% | 1.05e-05 M | 42% | 1.05e-06 M | 42% | 80% | – | cytotoxicity [6]: 88%; Max. inhibition (%) (maximum decrease in viability) [7]: 66%; cytotoxicity at 100 µM [8]: 71%
4 | Cc1cn([C@H]2CC(=O)[C@@H](CO)O2)c(=O)[nH]c1=O [HM-1, 3′-Deoxy-3′-oxothymidine] | 23% | 24% | – | 47% | 4.47e-05 M | 47% | 16% | -1.13 | cytotoxic / antiproliferative effect on tumor cells (SCC-25), in words ([3]; SCC-25 cells, FIG. 1, FIG. 2, Table 1): strong cytotoxic effect; also recorded: stronger than that of the two comparative substances 5-fluorouracil and aphidicolin; selectivity: effect on SCC-25 tumor cells compared with keratinocytes, in words ([3]; SCC-25 vs primary keratinocytes (and HaCaT)): stronger than that in primary keratinocytes
5 | C[C@@]1(CO)[C@H](O)CC[C@@]2(C)[C@H]1CC[C@H]1C[C@@H]3C[C@@]12CC[C@]3(O)CO [Aphidicolin] | 44% | 46% | 5.62e-09 M | 66% | 5.13e-07 M | 62% | 86% | – | cytotoxicity [6]: 54%; Max. inhibition (%) (maximum decrease in viability) [7]: 70%; cytotoxicity at 100 µM [8]: 61%
6 | O=C(O)P(=O)(O)O [Foscamet] | – | – | – | – | – | – | – | – | max. inhibition [2, 9]: n.d. (−13%); Max. inhibition (%) (maximum decrease in viability) ([2]; MTT test, NHK, 10^−4 M): 0%; max. inhibition [3, 11]: 9%; pIC50 [3, 12]: 5.87 ± 0.24; Max. inhibition (%) (maximum decrease in viability) ([3]; MTT test, SCC-25, 10^−4 M): 9%
7 | CCOC(=O)O[C@]1(C(=O)COC(=O)CC)CC[C@H]2[C@@H]3CCC4=CC(=O)C=C[C@]4(C)[C@H]3[C@@H](O)C[C@@]21C [Prednicarbate] | – | – | – | – | – | – | – | 3.82 | –
